Test system: purified human astrocytes
Assay: Calcium imaging of purified human astrocytes (Fluo-4 AM) after ATP or glutamate stimulation
Format: cell-based
Conditions: for calcium response (increased intracellular calcium concentrations): 30 nM-670 μM
Experimental: Therefore, we performed calcium imaging on purified human astrocytes after loading cells grown in vitro with the calcium sensitive dye Fluo-4 AM.
Calcium imaging. Purified human astrocytes were plated at 100,000 cells/imaging chamber (MatTek, P35GC-1.0-14-C) coated with poly-d-lysine. Cells were grown for at least 5 days before imaging. Cells were incubated for 15 minutes with 2 μM Fluo 4 AM (Invitrogen, F-14201) and then washed 3 times with PBS and replaced with 1.5 ml of growth medium per chamber. The cells were then let to recover from mechanical stimulation for 3 minutes and then imaged in a humidified, temperature-controlled chamber with a 40× oil objective. Images were taken at 0.7 s intervals and analyzed with ImageJ.

`N[C@@H](CCC(=O)O)C(=O)O` [glutamate] was tested. Which “temporal pattern of calcium response” value (postnatal human astrocytes) did it give?
The value was “synchronous non-oscillatory response”.

What about the “time for intracellular calcium to decrease to baseline levels” value (postnatal human astrocytes, independent of concentration) of the same compound?
Its value is no more than 10 s.

What about the “calcium response (increased intracellular calcium concentrations)” value (postnatal human astrocytes) of the same compound?
Its value is “responded to both”.

Which results are given for `Nc1ncnc2c1ncn2[C@@H]1O[C@H](COP(=O)(O)OP(=O)(O)OP(=O)(O)O)[C@@H](O)[C@H]1O` [ATP]?
calcium response (increased intracellular calcium concentrations) (fetal human astrocytes): responded; temporal pattern of calcium response (postnatal human astrocytes): asynchronous oscillatory response; calcium response (increased intracellular calcium concentrations) (postnatal human astrocytes): responded to both

Reference: patent publication US10093898B2, “Purification of functional human astrocytes” (The Board of Trustees of the Leland Stanford Junior …, priority 2015, dated 2018)
